Measurements published in patent US8962624B2, “Morpholines as selective inhibitors of cytochrome P450 2A13” (University of Kansas, priority 2007, dated 2015).
Where “and” joins values, the source holds several entries; their conditions need not be identical. Equal values may be shown once. Where a name gives a salt, the structure may show the parent alone. Read-outs that look alike come from different tables or passages of the source.

Key:
CYP2A6 = target: T1, CYP2A6 (Homo sapiens, UniProt P11509); assay: Spectral shift ligand binding titration with purified CYP2A6dH; settings: for Kd / 2A6 Av. Kd: Table 1, average Kd; for Kd: read-out: 2A6 Av. Kd; for binding to CYP2A6 in titration / spectral shift with CYP2A6: result in words
T1 construct: truncation of the non-catalytic N-terminal transmembrane helix and addition of a C-terminal 4× histidine tag; 4xHis (C); made in house; host or cells: E. coli
T1 sequence (P11509 with tags, fused parts or gaps limits assumed): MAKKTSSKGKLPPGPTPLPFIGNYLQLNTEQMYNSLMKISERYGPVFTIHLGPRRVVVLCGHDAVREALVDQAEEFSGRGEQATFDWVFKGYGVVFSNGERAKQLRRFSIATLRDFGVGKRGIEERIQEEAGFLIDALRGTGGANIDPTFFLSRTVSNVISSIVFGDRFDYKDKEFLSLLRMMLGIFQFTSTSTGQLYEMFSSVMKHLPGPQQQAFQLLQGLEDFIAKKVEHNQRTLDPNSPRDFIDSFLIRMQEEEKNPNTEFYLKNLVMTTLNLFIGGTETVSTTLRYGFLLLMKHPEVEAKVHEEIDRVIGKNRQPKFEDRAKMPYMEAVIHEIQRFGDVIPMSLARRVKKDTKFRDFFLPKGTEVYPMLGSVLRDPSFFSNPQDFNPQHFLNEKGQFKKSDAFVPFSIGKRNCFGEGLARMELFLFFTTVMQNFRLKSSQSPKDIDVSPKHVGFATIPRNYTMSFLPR
Excerpt: (§1) To date, virtually all attempts to characterize full-length mammalian cytochromes P450 have been restricted by the production of only small (nanomolar) amounts of protein. However, truncation of the non-catalytic N-terminal transmembrane helix and addition of a C-terminal 4× histidine tag allow us to recombinantly produce tens of milligrams of highly purified modified CYP2A13 and CYP2A6 proteins per liter of E. coli culture. These engineered versions of the proteins (CYP2A13dH and CYP2A6dH are not shown) are fully functional in both binding ligands and metabolism of substrates. Protein expression in E. coli is initiated with the addition of IPTG to media supplemented with the heme precursor aminolevulinic acid. After 48-72 hours this expression system yields approximately 500-1300 nmol (27-71 mg) of CYP2A13dH or CYP2A6dH per liter of bacterial culture. Briefly, P450 proteins are liberated from E, coli membranes using a specialized detergent and high salt conditions and subsequently purified using metal-affinity and carboxymethyl-sepharose (CM-sepharose) affinity chromatography. Overall purification yield is up to 14 mg of highly purified protein per liter of E. coli culture.
(§2) Cytochrome P4502A13dH was expressed and purified as previously described (J. Biol. Chem. (2007), 282(23)17306-17313). Briefly, CYP2A13 was solubilized from the membrane using 4.8 mM Cymal-5 detergent (Anatrace, Maumee, Ohio) and 0.3M NaCl followed by ultracentrifugation at 30,000 rpm for 60 minutes. The solubilized protein was applied to Ni^2+-agarose resin (Qiagen, Valencia, Calif.) and after extensive washing with Buffer A (0.1M potassium phosphate, pH 7.4, 20% glycerol, 0.2M sodium chloride, 4.8 mM cymal, 8 mM histidine), the protein was eluted using Buffer B (Buffer A containing 2 mM EDTA and 80 mM histidine). The fractions containing protein with absorbance at 415 nm were pooled, diluted 5-fold with Buffer C (5 mM potassium phosphate, pH 7.4, 20% glycerol, 4.8 mM Cymal-5), and loaded onto HiTrap CM-FF column. The column was washed extensively with Buffer C without the detergent. Purified CYP2A13 was eluted using Buffer C with 50 mM potassium phosphate and 500 mM NaCl. An average yield of 14 mgs of CYP2A13 was obtained per liter of E. coli culture, Cytochrome P4502A6dH was similarly prepared.
(§3) The UV/visible spectra of purified CYP2A13dH and CYP2A6dH have a Soret peak at 418 nm, indicative of a low-spin, six-coordinate configuration of the heme iron bound to an active site water molecule (FIG. 1A). When ligands bind in the active site they frequently displace the water from the iron, resulting in a shift to five-coordinate, high spin iron with a maximal absorbance 395 nm. For cytochrome P450 enzymes, one often records the spectrum shift that occurs as protein is titrated with ligand to determine ligand affinity (kd values) (FIG. 1B).
(§4) The compounds that induced spectral shifts close to that of the positive control (PEITC) were validated in the spectral shift assay using the low throughput cuvette method. CYP2A13 protein samples were diluted to a concentration of 1 μM in 100 mM potassium phosphate buffer (pH 7.4) and were divided equally between reference and sample 1 mL quartz cuvettes. Concentrated compound stocks were prepared in 100% DMSO and the sample baseline was taken from 300-500 nm before beginning the titration. Substrate was added to the sample cuvette, mixed, and allowed to equilibrate for 2 minutes. An equal amount of ethanol was added to the reference cuvette for every addition of compound stock to the sample. The total amount of ethanol was kept less than 2% for each titration. After each coumarin addition, difference spectra were recorded from 300-500 nm and the change maximum (˜420 nm) to the minimum (˜385 nm) was determined. Graphpad Prism 4 (Graphpad Software, San Diego, Calif.) was used to determine the Ks and ΔAmax with nonlinear least-squares regression fitting to the equation: […]

CYP2A13 = target: T2, CYP2A13 (Homo sapiens, UniProt Q16696); assay: Spectral shift ligand binding titration (cuvette method) with purified CYP2A13dH; settings: for Selectivity 2A6 Kd/2A13 Kd: (CYP2A6 Kd)/(CYP2A13 Kd), higher numbers are more selective
T2 construct: truncation of the non-catalytic N-terminal transmembrane helix and addition of a C-terminal 4× histidine tag; 4xHis (C); made in house; host or cells: E. coli
T2 sequence (Q16696 with tags, fused parts or gaps limits assumed): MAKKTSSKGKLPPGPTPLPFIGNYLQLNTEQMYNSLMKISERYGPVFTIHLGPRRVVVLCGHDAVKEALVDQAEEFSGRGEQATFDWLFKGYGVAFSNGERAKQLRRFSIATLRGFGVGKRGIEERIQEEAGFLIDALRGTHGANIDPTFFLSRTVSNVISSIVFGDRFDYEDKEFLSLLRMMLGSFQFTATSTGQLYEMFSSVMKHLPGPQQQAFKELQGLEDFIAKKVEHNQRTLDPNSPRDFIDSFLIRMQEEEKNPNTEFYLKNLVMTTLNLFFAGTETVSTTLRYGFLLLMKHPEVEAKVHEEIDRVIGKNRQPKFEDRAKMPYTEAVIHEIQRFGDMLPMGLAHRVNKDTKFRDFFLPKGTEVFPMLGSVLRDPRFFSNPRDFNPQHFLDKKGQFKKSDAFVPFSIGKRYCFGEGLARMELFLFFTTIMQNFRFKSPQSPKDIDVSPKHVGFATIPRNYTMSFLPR
Excerpt: as §1, §2, §3, §4

[1] = Table 1, average Kd, read-out: 2A13 Av. Kd
[2] = initial characterisation of the hits, read-out: initial Kd values, CYP2A13
[3] = multiple titrations, read-out: average Kd for CYP2A13

Compound | Kd (CYP2A6) | Selectivity 2A6 Kd/2A13 Kd (CYP2A13) | Kd (CYP2A13; [1]) | 2A6 Av. Kd (CYP2A6) | binding to CYP2A6 in titration (CYP2A6) | spectral shift with CYP2A6 (CYP2A6) | Kd (CYP2A13; [2]) | Kd (CYP2A13; [3]) | Kd (CYP2A13; text b152, unit inferred, multiple titrations, read-out: average Kd) | Kd (CYP2A13; Table 2, unit inferred, read-out: 2A13 Kd)
4-(2,3-dichlorobenzyl)-1,6-dimethylmorpholine [Compound 10] | > 486 µM | 12.9 | 37.7 µM | – | – | – | – | – | – | –
Clc1ccccc1CN1CCOCC1 [Compound 1, 4-(2-chlorobenzyl)morpholine] | – | high | – | No binding | no substantially binding | no spectral shift | 1.8 µM | 7.3 µM | – | –
Fc1cccc(Cl)c1CN1CCOCC1 [Compound 2, 4-(2-chloro-6-fluorobenzyl)morpholine] | – | high | – | No binding | no binding | absolutely no spectral shift | – | ~5.8 µM and 5.8 µM | – | –
Cc1ccccc1CN1CCOCC1 [Compound 3, 4-(2-methylbenzyl)morpholine] | – | high | 19.3 µM | No binding | no substantially binding | no spectral shift | 4 µM | 19.3 µM | 19.3 µM | –
Brc1ccccc1CN1CCOCC1 [Compound 4, 4-(2-bromobenzyl)morpholine] | – | high | 7 µM | No binding | – | – | – | – | – | –
Fc1ccccc1CN1CCOCC1 [Compound 5, 4-(2-fluorobenzyl)morpholine] | – | high | 72.5 µM | No binding | – | – | – | – | – | –
Clc1ccccc1CN1CCSCC1 [Compound 6, 4-(2-chlorobenzyl)thiomorpholine] | 155 µM | 15.5 | 10 µM | – | – | – | – | – | – | –
Clc1cccc(CN2CCOCC2)c1Cl [Compound 7, 4-(2,3-dichlorobenzyl)morpholine] | 788 µM | 27 | 28.5 µM | – | – | – | – | – | – | –
Clc1cccc(Cl)c1CN1CCOCC1 [Compound 8, 4-(2,6-dichlorobenzyl)morpholine] | 553 µM | 291 | 1.9 µM | – | – | – | – | – | – | –
Clc1ccc(CN2CCOCC2)c(Cl)c1 [Compound 9, 4-(2,4-dichlorobenzyl)morpholine] | 198 µM | 5.66 | 35 µM | – | – | – | – | – | – | –
C1CN(C2C3CC4CC(C3)CC2C4)CCO1 (centres unmarked) [Compound 31, 4-(2-adamantyl)morpholine hydrochloride] | – | – | – | – | – | – | – | – | – | 28.8 µM
